From PubChem BioAssay (NCI)
Where “and” joins values, the source holds several entries; their conditions need not be identical. Equal values may be shown once.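 All cell lines were grown in 96-well plates and treated with compound for 48 hours. GI50 = concentration required for 50% inhibition of growth. The concentration for full growth arrest is given as TGI.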

Tests used:
Assay in all cases: DTP human tumour cell line panel, 48 h
SNB-75 CNS = test system: SNB-75 CNS
SF-268 CNS = test system: SF-268 CNS
TK-10 renal = test system: TK-10 renal
EKVX NSCLC = test system: EKVX NSCLC
K-562 leukemia = test system: K-562 leukemia
SN12C renal = test system: SN12C renal
COLO 205 colon = test system: COLO 205 colon
A549 NSCLC = test system: A549 NSCLC
BT-549 breast = test system: BT-549 breast
MDA-MB-231 breast = test system: MDA-MB-231 breast

Row | SMILES | TGI (SNB-75 CNS) | TGI (SF-268 CNS) | TGI (TK-10 renal) | TGI (EKVX NSCLC) | TGI (K-562 leukemia) | TGI (SN12C renal) | TGI (COLO 205 colon) | TGI (A549 NSCLC) | GI50 (SNB-75 CNS) | GI50 (SF-268 CNS) | GI50 (TK-10 renal) | GI50 (EKVX NSCLC) | GI50 (K-562 leukemia) | GI50 (SN12C renal) | GI50 (COLO 205 colon) | GI50 (A549 NSCLC) | GI50 (BT-549 breast) | TGI (BT-549 breast) | GI50 (MDA-MB-231 breast) | TGI (MDA-MB-231 breast)
1 | COc1cc2c(c3c1C=CCO3)C(=O)c1ccccc1C2=O | > 100 µM | > 100 µM | > 100 µM | > 100 µM | > 100 µM | > 100 µM | 39.8 µM | > 100 µM |  |  |  |  |  |  |  |  |  |  |  | 
2 | CCOC(=O)CC1=Nc2ccccc2SC1 | > 100 µM | 1.56 µM | > 100 µM | > 100 µM |  | > 100 µM | > 100 µM | > 100 µM |  |  |  |  |  |  |  |  |  |  |  | 
3 | CCCCCCCCCCCCC(=O)OC(c1cnco1)c1nc(C(O)CC(O)C(O)C(C)O)co1 (stereo unspecified) | 15.9 µM | > 47.3 µM | > 76.5 µM | > 100 µM | > 100 µM | > 100 µM | 1.98 µM and 3.52 µM | > 100 µM | 2.91 µM | 4.56 µM | 5.04 µM | 6.56 µM | 0.426 µM | 4.09 µM | 0.587 µM | 0.88 µM |  |  |  | 
4 | CN=C(N)N/N=C(\c1ccccc1)c1ccc(Br)cc1 | 6.51 µM | 11.8 µM | 8.47 µM |  | 6.31 µM | 6.27 µM | 1.04 µM | 10.1 µM | 0.387 µM | 0.685 µM | 0.709 µM |  | 0.294 µM | 0.451 µM | 0.279 µM | 0.394 µM | 1.5 µM | 12.7 µM | 0.358 µM | 2.09 µM
5 | FC(F)(F)c1nc(-c2ccccc2Cl)[nH]c1C(F)(F)F | 5 µM | > 29.5 µM | 14.5 µM | 2.25 µM | 4.29 µM | 3.14 µM | 0.971 µM | 3.06 µM |  |  |  |  |  |  |  |  |  |  |  | 
6 | CNC(=O)c1ccccc1CC1(O)c2ccccc2Oc2ccccc21 | 39 µM | 85.9 µM | 89.9 µM |  | > 100 µM | > 100 µM | 15.9 µM | > 100 µM | 12.4 µM | 24.2 µM | 26.6 µM |  | 6.78 µM | 26 µM | 3.99 µM | 16.5 µM | 25.9 µM | > 100 µM | 15 µM | 83.3 µM
7 | O=C(Nc1nc2ccccc2s1)OCC(F)(F)F | > 100 µM | > 100 µM | > 100 µM |  | > 100 µM | > 100 µM | > 100 µM | > 100 µM | > 100 µM | > 100 µM | > 100 µM |  | > 100 µM | > 100 µM | > 100 µM | > 100 µM | > 100 µM | > 100 µM | > 100 µM | > 100 µM
8 | Cc1cc2c(cc1C)[n+](=O)c(C(=O)C/C(=N/NC(=O)c1ccccc1O)C(=O)Nc1ccccc1C(C)C)c(C)n2[O-] | > 100 µM | > 100 µM | > 100 µM | > 100 µM | > 100 µM | > 100 µM | > 100 µM | > 100 µM |  |  |  |  |  |  |  |  |  |  |  | 
